PubChem BioAssay AID248 (DTP/NCI, 2004)
Values joined by “and” are separate entries in the source; they are usually repeats but may differ in a detail not shown here. Equal entries are not always repeated. Inconclusive results and toxic doses are left out. Square brackets hold non-standard residues; d marks the D form. Peptide text beside a SMILES is read from it. * marks the point of attachment. ξ: configuration not given here. Hexanoyl = CCCCCC(=O)*; ξP = O=C(O)C1CCCN1

System: L1210 leukemia ip in BDF1 mice, survival T/C
Experiment: NCI In Vivo Anticancer Drug Screen. Data for tumor model L1210 Leukemia (intraperitoneal) in B6D2F1 (BDF1) mice
Settings: endpoint: mean survival time, higher = longer survival
In short: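 Each compound was tested against a transplantable tumor grown in mice. The endpoint was survival, with treated animals benchmarked against vehicle controls as a simple ratio.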

[1] = dose: 100.0 mg/kg/injection, schedule: Q04DX002 (ip), vehicle: Klucel (hydroxypropylcellulose) (HPC)
[2] = dose: 200.0 mg/kg/injection, schedule: Q04DX002 (ip), vehicle: Klucel (hydroxypropylcellulose) (HPC)
[3] = dose: 400.0 mg/kg/injection, schedule: Q04DX002 (ip), vehicle: Klucel (hydroxypropylcellulose) (HPC)
[4] = dose: 100.0 mg/kg/injection, schedule: Q01DX009 (ip), vehicle: Klucel (hydroxypropylcellulose) (HPC)
[5] = dose: 100.0 mg/kg/injection, schedule: Q04DX003 (ip), vehicle: Klucel (hydroxypropylcellulose) (HPC)
[6] = dose: 200.0 mg/kg/injection, schedule: Q01DX009 (ip), vehicle: Klucel (hydroxypropylcellulose) (HPC)
[7] = dose: 200.0 mg/kg/injection, schedule: Q04DX003 (ip), vehicle: Klucel (hydroxypropylcellulose) (HPC)
[8] = dose: 400.0 mg/kg/injection, schedule: Q01DX009 (ip), vehicle: Klucel (hydroxypropylcellulose) (HPC)
[9] = dose: 400.0 mg/kg/injection, schedule: Q04DX003 (ip), vehicle: Klucel (hydroxypropylcellulose) (HPC)
[10] = dose: 50.0 mg/kg/injection, schedule: Q01DX009 (ip), vehicle: saline with Tween-80
[11] = dose: 100.0 mg/kg/injection, schedule: Q01DX009 (ip), vehicle: saline with Tween-80
[12] = dose: 100.0 mg/kg/injection, schedule: Q01DX001 (ip), vehicle: saline
[13] = dose: 200.0 mg/kg/injection, schedule: Q01DX001 (ip), vehicle: saline
[14] = dose: 400.0 mg/kg/injection, schedule: Q01DX001 (ip), vehicle: saline
[15] = dose: 75.0 mg/kg/injection, schedule: Q01DX001 (ip), vehicle: other
[16] = dose: 150.0 mg/kg/injection, schedule: Q01DX001 (ip), vehicle: other
[17] = dose: 100.0 mg/kg/injection, schedule: Q01DX009 (ip), vehicle: water
[18] = dose: 100.0 mg/kg/injection, schedule: Q04DX003 (ip), vehicle: water
[19] = dose: 400.0 mg/kg/injection, schedule: Q04DX003 (ip), vehicle: water

With `CC(=O)N(CCN(Cc1ccc(Oc2ccc([N+](=O)[O-])cc2[N+](=O)[O-])cc1)C(C)=O)CCN(Cc1ccc(Oc2ccc([N+](=O)[O-])cc2[N+](=O)[O-])cc1)C(C)=O` the T/C (dose: 25.0 mg/kg/injection, schedule: Q01DX009 (ip), vehicle: other) was 102 % of control, the T/C (dose: 50.0 mg/kg/injection, schedule: Q01DX009 (ip), vehicle: other) was 97 % of control and the T/C (dose: 100.0 mg/kg/injection, schedule: Q01DX009 (ip), vehicle: other) was 96 % of control. For the same compound, the T/C (dose: 200.0 mg/kg/injection, schedule: Q01DX009 (ip), vehicle: other) was 96 % of control and the T/C (dose: 400.0 mg/kg/injection, schedule: Q01DX009 (ip), vehicle: other) was 93 % of control.

In the case of `C=C(CSCC(N)=O)c1ccccc1`, the T/C [1] is reported as 97 % of control, the T/C [2] is reported as 97 % of control and the T/C [3] is reported as 94 % of control.

With `O=C1OC(=O)c2c1ccc(Br)c2Br` the T/C [4] was 102 % of control, the T/C [5] was 101 % of control and the T/C [6] was 96 % of control. For the same compound, the T/C [7] was 98 % of control, the T/C [8] was 89 % of control and the T/C [9] was 93 % of control.

With `Cc1cccc(OCC2CO2)c1` (configuration not stated) the T/C (dose: 100.0 mg/kg/injection, schedule: Q04DX002 (ip), vehicle: saline) was 87 % of control, the T/C (dose: 200.0 mg/kg/injection, schedule: Q04DX002 (ip), vehicle: saline) was 102 % of control and the T/C (dose: 400.0 mg/kg/injection, schedule: Q04DX002 (ip), vehicle: saline) was 105 % of control.

`CCN(CC)CC(=O)Nc1cccc2c1C(=O)c1c(c(O)c3ccccc3c1O)C2=O` was tested, and the T/C [10] was 94 % of control, the T/C [11] was 103 % of control and the T/C (dose: 100.0 mg/kg/injection, schedule: Q04DX003 (ip), vehicle: saline with Tween-80) was 101 % of control. The T/C (dose: 200.0 mg/kg/injection, schedule: Q01DX009 (ip), vehicle: saline with Tween-80) was 98 % of control, the T/C (dose: 200.0 mg/kg/injection, schedule: Q04DX003 (ip), vehicle: saline with Tween-80) was 155 % of control and the T/C (dose: 400.0 mg/kg/injection, schedule: Q04DX003 (ip), vehicle: saline with Tween-80) was 102 % of control.

With `CCCCCC(=O)NCC(=O)N1CCCC1C(=O)O` (configuration not stated) (Hexanoyl-Gly-[ξP]-OH) the T/C [12] was 95 % of control, the T/C [13] was 107 % of control and the T/C [14] was 98 % of control.

With `CC(C)=CCC(CCN(C)C)(C(N)=O)c1cccc2ccccc12` (configuration not stated) the T/C (dose: 5.0 mg/kg/injection, schedule: Q01DX009 (ip), vehicle: Klucel (hydroxypropylcellulose) (HPC)) was 102 % of control, the T/C (dose: 5.0 mg/kg/injection, schedule: Q04DX003 (ip), vehicle: Klucel (hydroxypropylcellulose) (HPC)) was 94 % of control and the T/C (dose: 10.0 mg/kg/injection, schedule: Q01DX009 (ip), vehicle: Klucel (hydroxypropylcellulose) (HPC)) was 93 % of control. The T/C (dose: 10.0 mg/kg/injection, schedule: Q04DX003 (ip), vehicle: Klucel (hydroxypropylcellulose) (HPC)) was 91 % of control, the T/C (dose: 20.0 mg/kg/injection, schedule: Q01DX009 (ip), vehicle: Klucel (hydroxypropylcellulose) (HPC)) was 91 % of control and the T/C (dose: 20.0 mg/kg/injection, schedule: Q04DX003 (ip), vehicle: Klucel (hydroxypropylcellulose) (HPC)) was 96 % of control.

`CC(C)(C)NC(=O)C1CC2(C)CCC1C2(C)C` (configuration not stated) was tested, and the T/C [15] was 93 % of control and the T/C [16] was 93 % of control.

In the case of `CNc1nc[nH]c(=O)c1NC(=O)c1ccccc1`, the T/C (dose: 45.0 mg/kg/injection, schedule: Q01DX001 (ip), vehicle: Klucel (hydroxypropylcellulose) (HPC)) is reported as 103 % of control, the T/C (dose: 90.0 mg/kg/injection, schedule: Q01DX001 (ip), vehicle: Klucel (hydroxypropylcellulose) (HPC)) is reported as 95 % of control and the T/C (dose: 180.0 mg/kg/injection, schedule: Q01DX001 (ip), vehicle: Klucel (hydroxypropylcellulose) (HPC)) is reported as 92 % of control.

In the case of `O=C(ONC1CCC(CC2CCCCC2)CC1)c1ccccc1` (configuration not stated), the T/C (dose: 50.0 mg/kg/injection, schedule: Q01DX009 (ip), vehicle: Klucel (hydroxypropylcellulose) (HPC)) is reported as 102 % of control, the T/C [4] is reported as 97 % of control and the T/C [5] is reported as 97 % of control. For the same compound, the T/C [7] was 89 % of control.

`CCN(Cc1ccccc1)C(=O)NC(C)(C)C` was tested, and the T/C [4] was 98 % of control and the T/C [6] was 95 % of control.

`CCn1c2ccccc2c2ccc(C(C)=O)cc21` was tested, and the T/C (dose: 75.0 mg/kg/injection, schedule: Q01DX001 (ip), vehicle: carboxymethylcellulose (CMC)) was 95 % of control, the T/C (dose: 150.0 mg/kg/injection, schedule: Q01DX001 (ip), vehicle: carboxymethylcellulose (CMC)) was 95 % of control and the T/C (dose: 300.0 mg/kg/injection, schedule: Q01DX001 (ip), vehicle: carboxymethylcellulose (CMC)) was 97 % of control.

With `CNC(=O)C(c1ccccc1)C(O)(c1ccccc1)c1ccccc1` (configuration not stated) the T/C (dose: 50.0 mg/kg/injection, schedule: Q01DX001 (ip), vehicle: saline) was 96 % of control, the T/C [12] was 93 % of control and the T/C [13] was 98 % of control. The T/C [14] was 87 % of control.

For `O=C(Nc1ncccn1)Nc1cccc2ccccc12`, the T/C (dose: 12.5 mg/kg/injection, schedule: Q04DX002 (ip), vehicle: Klucel (hydroxypropylcellulose) (HPC)) was 102 % of control, the T/C (dose: 25.0 mg/kg/injection, schedule: Q04DX002 (ip), vehicle: Klucel (hydroxypropylcellulose) (HPC)) was 97 % of control and the T/C (dose: 50.0 mg/kg/injection, schedule: Q04DX002 (ip), vehicle: Klucel (hydroxypropylcellulose) (HPC)) was 97 % of control. For the same compound, the T/C [1] was 92 % of control, the T/C [2] was 92 % of control and the T/C [3] was 95 % of control.

In the case of `NC(=O)N/N=C\c1ccc(O)cn1`, the T/C (dose: 100.0 mg/kg/injection, schedule: Q04DX003 (ip), vehicle: acetone) is reported as 98 % of control, the T/C (dose: 200.0 mg/kg/injection, schedule: Q04DX003 (ip), vehicle: acetone) is reported as 93 % of control and the T/C (dose: 400.0 mg/kg/injection, schedule: Q04DX003 (ip), vehicle: acetone) is reported as 96 % of control.

In the case of `Nc1nc(N)c2c(Cl)c(CNc3ccc(Cl)c(Cl)c3)ccc2n1`, the T/C (dose: 6.25 mg/kg/injection, schedule: Q01DX009 (ip), vehicle: water) is reported as 124 % of control, the T/C (dose: 12.5 mg/kg/injection, schedule: Q01DX009 (ip), vehicle: saline with Tween-80) is reported as 158 % of control and the T/C [10] is reported as 119 % of control. The T/C (dose: 50.0 mg/kg/injection, schedule: Q01DX009 (ip), vehicle: water) was 93 % of control and 110 % of control, the T/C (dose: 50.0 mg/kg/injection, schedule: Q04DX003 (ip), vehicle: water) was 107 % of control and the T/C [11] was 91 % of control. The T/C [17] was 86 % of control, the T/C [18] was 124 % of control and the T/C [19] was 113 % of control. For the same compound, the T/C (dose: 600.0 mg/kg/injection, schedule: Q04DX003 (ip), vehicle: water) was 97 % of control.

For `CC(=O)CCCSCCOC(C)=O`, the T/C [4] was 95 % of control, the T/C [6] was 101 % of control and the T/C [8] was 101 % of control.

With `CC12C=CC(O1)C1C(=O)OC(=O)C12` (configuration not stated) the T/C (dose: 50.0 mg/kg/injection, schedule: Q01DX009 (ip), vehicle: saline) was 91 % of control, the T/C [15] was 96 % of control and the T/C (dose: 100.0 mg/kg/injection, schedule: Q01DX009 (ip), vehicle: saline) was 100 % of control. The T/C [16] was 98 % of control and the T/C (dose: 200.0 mg/kg/injection, schedule: Q01DX009 (ip), vehicle: saline) was 88 % of control.

For `CCCCNC(=O)c1ccc(C)c(OCc2ccccc2)c1[N+](=O)[O-]`, the T/C [12] was 108 % of control, the T/C [13] was 87 % of control and the T/C [14] was 90 % of control.

In the case of `CSCC(C(N)=O)c1cc(Cl)ccc1Cl` (configuration not stated), the T/C (dose: 100.0 mg/kg/injection, schedule: Q01DX001 (ip), vehicle: Klucel (hydroxypropylcellulose) (HPC)) is reported as 107 % of control, the T/C [17] is reported as 100 % of control and the T/C [5] is reported as 102 % of control. For the same compound, the T/C [18] was 100 % of control, the T/C (dose: 200.0 mg/kg/injection, schedule: Q01DX001 (ip), vehicle: Klucel (hydroxypropylcellulose) (HPC)) was 103 % of control and the T/C (dose: 200.0 mg/kg/injection, schedule: Q01DX009 (ip), vehicle: water) was 94 % of control. The T/C [7] was 104 % of control, the T/C (dose: 200.0 mg/kg/injection, schedule: Q04DX003 (ip), vehicle: water) was 100 % of control and the T/C (dose: 400.0 mg/kg/injection, schedule: Q01DX001 (ip), vehicle: Klucel (hydroxypropylcellulose) (HPC)) was 102 % of control. The T/C (dose: 400.0 mg/kg/injection, schedule: Q01DX009 (ip), vehicle: water) was 94 % of control, the T/C [9] was 96 % of control and the T/C [19] was 90 % of control.
